Test results from PubChem BioAssay (NCI).
Where “and” joins values, the source holds several entries; their conditions need not be identical. Equal entries are not always repeated.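 Briefly, cells in 96-well plates were exposed to five compound concentrations for 48 h, and endpoints were estimated by linear interpolation. Here, GI50 denotes the concentration required for 50% inhibition of growth. At the TGI there is no net growth.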

What was measured:
Experiment in all cases: NCI-60 cell line screen, 48 h
[1] = tested on: UACC-62 melanoma
[2] = tested on: NCI-H460 lung
[3] = tested on: TK-10 renal
[4] = tested on: SW-620 colon
[5] = tested on: SNB-19 CNS
[6] = tested on: EKVX NSCLC
[7] = tested on: 786-0 renal
[8] = tested on: A498 renal
[9] = tested on: MDA-MB-231 breast
[10] = tested on: BT-549 breast

SMILES	TGI [1]	TGI [2]	TGI [3]	TGI [4]	TGI [5]	TGI [6]	TGI [7]	TGI [8]	GI50 [1]	GI50 [2]	GI50 [3]	GI50 [9] [µM]	TGI [9] [µM]	GI50 [10] [µM]	TGI [10] [µM]	GI50 [4]	GI50 [5]	GI50 [7]	GI50 [8]	GI50 [6]
COC(=O)C1=Cc2cc3c(cc2[C@H](c2ccc4c(c2)OCO4)C1C(=O)OC)OCO3 (some centres undefined)	> 100 µM	> 100 µM	> 100 µM	> 100 µM	> 100 µM	> 100 µM	> 100 µM	74 µM												
CCOC(=O)C(C(=O)c1ccccc1-c1ccccc1C(=O)O)=P(c1ccccc1)(c1ccccc1)c1ccccc1	33 µM	39 µM	> 100 µM	> 100 µM	92 µM	> 100 µM	> 100 µM	88.8 µM												
CCCOC(=O)C1CCC(=O)N1C(=O)C(Cl)Cl (centres undefined)	> 100 µM	> 100 µM	> 100 µM	> 100 µM	> 100 µM	> 100 µM	> 100 µM	> 100 µM												
COC(=O)C1=C(O)C(O)=C(C(=O)OC)CC1	> 100 µM	> 100 µM	> 100 µM	> 100 µM	> 100 µM	> 100 µM	> 100 µM	> 100 µM												
COC(=O)C(=O)C(C#N)c1cccc2ccccc12 (centres undefined)	> 100 µM			> 100 µM	> 100 µM	> 100 µM	> 100 µM	> 100 µM												
CCOC(=O)c1cnc2ccc(Cl)cc2c1NCCCN(C)C	32.8 µM	82.7 µM	> 100 µM	74.6 µM	> 100 µM		> 100 µM	37.8 µM	16400 nM	22200 nM	27.5 µM	19.5	86.4	27.8	> 100	13.4 µM	51.1 µM	43 µM	15600 nM	
C1=C[C@@H]2c3ccc4cnccc4c3NC[C@@H]2C1	> 100 µM	> 100 µM	> 100 µM	> 100 µM	> 100 µM	> 100 µM	> 100 µM	> 100 µM							> 100					
COC1OC(OC)C2C(c3c(C)cc(C)cc3C)=NOC12 (centres undefined)	> 100 µM	> 100 µM	> 100 µM	> 100 µM	> 100 µM	> 100 µM	> 100 µM													
CCCCN(CCCC)C(=Nc1ccccc1)N(CCCC)CCCC		19.1 µM	34.4 µM	15.8 µM	32 µM	17.5 µM	15.2 µM	37.8 µM												
O=C(CC1Sc2ccccc2NC1=O)Nc1cccc(Cl)c1 (centres undefined)	> 100 µM	> 100 µM	> 100 µM	> 100 µM	> 100 µM	84.8 µM	> 100 µM	> 100 µM												
CC(C)NC(=O)OCc1nnn2c1C(OC(=O)NC(C)C)CC2 (centres undefined)	> 100 µM	> 100 µM	> 100 µM	> 100 µM	> 100 µM	> 100 µM	> 100 µM													
CCC12C=CCN3CC[C@]4(C(=C(C(=O)OC)[C@@H]1Nc1ncnc5c1ncn5C1OC(COC(C)=O)C(OC(C)=O)C1OC(C)=O)Nc1ccccc14)C32 (some centres undefined)	10.3 µM	5.99 µM	6.58 µM	5.31 µM	12.1 µM	16.2 µM	4.01 µM	4.56 µM												
COC1CCC(=C2C(=O)OC(C)(C)OC2=O)N1 (centres undefined)	> 100 µM	> 100 µM	> 100 µM	> 100 µM	> 100 µM	> 100 µM	> 100 µM													
CCc1ccc(Cc2ccc(CC)c(NC(=O)C(=O)Cc3nc4ccccc4nc3C)c2CC)c(CC)c1NC(=O)C(=O)Cc1nc2ccccc2nc1C	> 100 µM	> 100 µM	> 100 µM	> 100 µM	> 100 µM	> 100 µM	> 100 µM	> 100 µM												
COC(=O)C1=CC(=O)C(C(=O)Nc2ccc(OC)cc2)C(c2ccccc2)O1 (centres undefined)	> 89.6 µM	> 100 µM	73.5 µM	> 100 µM	42 µM	> 100 µM	41.5 µM	68 µM												
COc1ccc(CN(O)C2C(CO)OC(n3cc(I)c(=O)[nH]c3=O)C2O)cc1 (centres undefined)	> 100 µM	> 100 µM	> 100 µM	> 100 µM	> 100 µM	> 100 µM	> 100 µM	> 100 µM												
CCS[C@H]1NC(=O)C1[C@H](C)O[Si](C)(C)C(C)(C)C (some centres undefined)	> 100 µM	> 100 µM	> 100 µM	> 100 µM	> 100 µM	> 100 µM	> 100 µM	> 100 µM												
c1ccc([CH2][Sn]([CH2]c2ccccc2)([S]c2cccc3cccnc23)[S]c2cccc3cccnc23)cc1	0.496 µM	1.01 µM	1.06 µM	0.813 µM	2.07 µM	2.03 µM	1.05 µM	0.95 µM	211 nM	273 nM	0.326 µM					0.21 µM	0.853 µM	0.314 µM	288 nM	0.666 µM
N#Cc1c([N+](=O)[O-])cc(C(F)(F)F)cc1[N+](=O)[O-]	12.2 µM	40.3 µM	18.1 µM	8.77 µM	32.4 µM	32.9 µM	12.7 µM	32.9 µM												
CC(=O)OC1COC(N2C(=O)C(=O)c3c(C)cc(Cl)nc32)C(OC(C)=O)C1OC(C)=O (centres undefined)	> 100 µM	> 100 µM	> 100 µM	> 100 µM	> 100 µM	> 100 µM	> 100 µM	> 100 µM												
CCOC(=O)c1cc2c(n1Cc1cccc(OC)c1)-c1oncc1CC2	> 100 µM	> 100 µM	> 100 µM	> 100 µM	> 100 µM	> 100 µM	> 100 µM	3.39 µM	541 nM	511 nM	7.51 µM	4.87	> 100			0.433 µM	4.72 µM	4.29 µM	156 nM	9.1 µM

SMILES	TGI [1]	TGI [2]	TGI [3]	TGI [4]	TGI [5]	TGI [6]	TGI [7]	TGI [8]	GI50 [1]	GI50 [2]	GI50 [3]	GI50 [9] [µM]	TGI [9] [µM]	GI50 [10] [µM]	TGI [10] [µM]	GI50 [4]	GI50 [5]	GI50 [7]	GI50 [8]	GI50 [6]
C[N+](C)(C)CC(=O)N/N=C(/C=C/c1ccccc1)CC1OC(=O)c2ccccc21 (centres undefined)	> 100 µM	> 100 µM	> 100 µM	> 100 µM	> 100 µM	> 100 µM	> 100 µM	> 100 µM												
O=C(c1ccccc1)c1nnn(Cc2cccc(Cl)c2)c1C(=O)c1ccccc1	> 100 µM	> 100 µM	> 100 µM	> 100 µM	> 100 µM	> 100 µM	> 100 µM													
[N-]=[N+]=Nc1ccc(S(=O)(=O)Oc2cc(OS(=O)(=O)c3ccc(N=[N+]=[N-])cc3)cc(OS(=O)(=O)c3ccc(N=[N+]=[N-])cc3)c2)cc1	> 100 µM	> 100 µM	> 100 µM	> 10 µM	> 10 µM	> 100 µM	> 100 µM	> 100 µM												
CCN(CC)CCN(C)CC(C)(C)C(=O)/C=C/c1ccccc1	26.9 µM	20.3 µM	36.8 µM	24.2 µM	28.4 µM	26.1 µM	29.4 µM	17.3 µM												
C=CCCc1cc(OC)ccc1CN(C)C(C)(C)CO	> 100 µM	> 100 µM	> 100 µM	> 100 µM	> 100 µM	> 100 µM	> 100 µM	> 100 µM												
CN1CCC(O)C(CNC23CC4CC(CC(C4)C2)C3)C1 (centres undefined)	> 100 µM	> 100 µM	> 100 µM	> 100 µM	> 100 µM	> 100 µM	> 100 µM	> 100 µM												
CC(C)Oc1cc(OCC(=O)O)cc(C(=O)N(CCC(N)=O)C(=O)Nc2ccc(C(=O)O)cc2OC(C)C)c1	> 100 µM	> 100 µM	> 100 µM	> 100 µM	> 100 µM		> 100 µM	> 100 µM	> 100000 nM	> 100000 nM	> 100 µM	> 100	> 100	> 100	> 100	> 100 µM	> 100 µM	> 100 µM	> 100000 nM	
CC[C@]1(O)C[C@@H]2CN(Cc3c([nH]c4ccccc34)[C@@](C(=O)OC)(c3cc4c(cc3OC)N(C)[C@H]3[C@@](O)(C(=O)OC)[C@H](OC(C)=O)[C@]5(CC)[C@@H]6C[C@@H]6CN6CC[C@]43[C@@H]65)C2)C1	> 4.38 µM	> 4.38 µM	> 4.38 µM	> 4.38 µM	> 4.38 µM		> 4.38 µM	> 2.85 µM	57.8 nM	109 nM	> 3.69 µM	0.0761	> 2.61	0.365	> 4.38	0.0701 µM	0.106 µM	0.713 µM	163 nM	
Cc1c(C(=O)/C=C/c2ccco2)[n+](=O)c2ccccc2n1[O-]	> 100 µM	> 100 µM	> 100 µM	> 100 µM	> 100 µM	> 100 µM	> 100 µM	> 100 µM												
FC(F)(F)c1ccc2nc(-c3nc(-c4ccccc4)n4ccccc34)[nH]c2c1	17.9 µM	11.2 µM	5.32 µM	23.6 µM	20.8 µM		3.56 µM	5.85 µM	3190 nM	2930 nM	2.85 µM	2.04	5.39	4.23	63.4	3.17 µM	6.44 µM	1.92 µM	1690 nM	
CCN(CC)CCn1c(=N)n(CC(O)c2ccc(Cl)c(Cl)c2)c2ccccc21 (centres undefined)	3.89 µM	17.9 µM	27.1 µM	24.8 µM	28.8 µM		23.1 µM	15.6 µM	1940 nM	4970 nM	14.1 µM	5.16	20.2	14.5	28	11 µM	13.5 µM	10.9 µM	3070 nM	
CC(C)c1ccc2c(c1)CCC1C(C)(C)[C@@H](O)CC[C@]21C (some centres undefined)	> 100 µM	41.4 µM	> 100 µM		> 100 µM		52.5 µM													
CC(=O)NNc1nc(C)c(C(/C=C/c2ccc(/C=C/C(=N\NC(=O)c3ccncc3)c3sc(NNC(C)=O)nc3C)cc2)=N/NC(=O)c2ccncc2)s1	> 100 µM	> 100 µM	> 100 µM	> 100 µM	> 100 µM	> 100 µM	> 100 µM	> 100 µM												
CCCCNC(=S)Nn1c(-c2ccccc2)nc2ccccc2c1=O	> 100 µM	> 100 µM	> 100 µM	> 100 µM			> 100 µM	> 100 µM												
COc1ccc(C(=O)O/N=C2\CCCC\C2=C/c2ccccc2)cc1	> 100 µM	> 100 µM	> 100 µM	> 100 µM	> 100 µM	> 100 µM	> 100 µM	> 100 µM												
O=c1[nH]nc(-c2ccccc2)c(-c2ccccc2)c1-n1nc(-c2ccccc2)c2ccccc2c1=O	> 100 µM	> 100 µM	> 100 µM	> 100 µM		> 100 µM	> 100 µM	> 100 µM												
O=C(Nc1ccc(Cl)cc1)NS(=O)(=O)c1ccc2c(c1)CCC2	> 84.7 µM and 36.7 µg/mL	> 46.4 µM and 36.6 µg/mL	> 95.4 µM and 44.5 µg/mL	> 100 µM and 33.6 µg/mL	> 100 µM and 53.5 µg/mL	> 100 µM and 72.1 µg/mL	> 100 µM and 40.5 µg/mL	> 100 µM and 38 µg/mL	15.9 µg/mL	7.71 µg/mL	21 µg/mL				> 100	10.6 µg/mL	18.6 µg/mL	21.1 µg/mL	19.1 µg/mL	22.4 µg/mL
CN(C)C1(C#N)CCC2(CC1)OCCO2	> 100 µM	> 100 µM	> 100 µM	> 100 µM	> 100 µM	> 100 µM	> 100 µM	> 100 µM												
C=C1C(=O)OC2C1C(OC(=O)/C(=C/C)COC(C)=O)CC1(CO1)C1C(OC(=O)/C(=C/C)CO)C=C(C)C21 (centres undefined)	3.01 µM	28.3 µM	6.05 µM	9.56 µM	13.9 µM	4.16 µM	3.09 µM	8.94 µM												
O=C(Nc1nc2ncn(CCOC(=O)c3ccccc3)c2c(=O)[nH]1)c1ccccc1	> 100 µM	> 100 µM	> 100 µM	> 100 µM	> 100 µM	> 100 µM	> 100 µM	> 100 µM					> 100							
